Assay results taken from patent US12435044B2, “Pyridazinone herbicides and pyridazinone intermediates used to prepare a herbicide” (FMC Corporation, priority 2018, dated 2025).

Columns and labels:
Format in all cases: in vivo
[1] = test system: barnyardgrass (ECHCG; Echinochloa crus-galli); assay: Test H postemergence, mixtures of Cpd. No. 20 with atrazine or glyphosate
Procedure, shortened: (§1)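 Seeds were sown in potted peat-based medium and grown until one- to two-leaf stage, then treated over the top with surfactant-containing solvent formulations. Greenhouse holding lasted roughly 14 d before plants were compared with untreated controls and scored for injury, 0 meaning no effect and 100 full control.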

[2] = test system: velvetleaf (ABUTH; Abutilon threophrasti); assay: as above
Procedure, shortened: as §1

[3] = test system: soybean (GLXMA; Glycine max, cv. Pioneer 35T58); assay: Test M postemergence, mixtures of Cpd. No. 20 with isoxadifen-ethyl, cloquintocet-mexyl or Mefenpyr-diethyl; settings: approx. 14 d
Text: (§2) This test evaluated the effect of mixtures of Cpd. No. 20 with isoxadifen-ethyl, or cloquintocet-mexyl, or Mefenpyr-diethyl on several plant species. Seeds of plant species selected from corn (ZEAMD; Zea mays, cv. ‘Pioneer 1184’), soybean (GLXMA; Glycine max, cv. Pioneer 35T58), winter wheat (TRZAW; Triticum aetivum, cv. Arezzo), winter barley (HORVW; Hordeum vulgare, cv. Boone), rice (ORYSS; Oryza sativa, cv. M202), and giant foxtail (SETFA; Setaria faberi) were planted in pots containing Redi-Earth® planting medium (Scotts Company, 14111 Scottslawn Road, Marysville, Ohio 43041) comprising spaghnum peat moss, vermiculite, wetting agent and starter nutrients and treated postemergence using test chemicals formulated in a non-phytotoxic solvent mixture which included a surfactant. Plants ranged in height from 7 to 10 cm and were in the one- to two-leaf stage for the postemergence treatment. Treated plants and untreated controls were maintained in a greenhouse for approximately 14 d, after which time all treated plants were compared to untreated controls and visually evaluated for injury. Plant response ratings, summarized in Tables M1 to M3, are based on a 0 to 100 scale where 0 is no effect and 100 is complete control. A dash (-) response means no test result. Test results are presented as a mean of 3 reps.

[4] = test system: winter barley (HORVW; Hordeum vulgare, cv. Boone); assay: as above; settings: approx. 14 d
Text: as §2

[5] = test system: giant foxtail (SETFA; Setaria faberi); assay: as above; settings: approx. 14 d
Text: as §2

[6] = test system: corn (ZEAMD; Zea mays, cv. ‘Pioneer 1184’); assay: as above; settings: approx. 14 d
Text: as §2

[7] = test system: winter wheat (TRZAW; Triticum aetivum, cv. Arezzo); assay: as above; settings: approx. 14 d
Text: as §2

[8] = test system: rice (ORYSS; Oryza sativa, cv. M202); assay: as above; settings: approx. 14 d
Text: as §2

[9] = test system: field violet (Viola arvensis); assay: Test D postemergence controlled growth environment test
Text: (§3) Seeds of plant species selected from blackgrass (Alopecurus myosuroides), galium (catchweed bedstraw, Galium aparine), kochia (Kochia scoparia), oilseed rape (Brassica napus), barley, spring (Hordeum vulgare), wheat, spring (Triticum aestivum), oat, wild (Avena fatua), barley, winter (Hordeum vulgare) and wheat, winter (Triticum aestivum) were planted into a silt loam soil and treated preemergence with test chemicals formulated in a non-phytotoxic solvent mixture which included a surfactant.
(§4) At the same time, plants selected from these crop and weed species and also bluegrass (annual bluegrass, Poa annua), canarygrass (littleseed canarygrass, Phalaris minor), chickweed (common chickweed, Stellaria media), bromegrass, downy (downy bromegrass, Bromus tectorum), field poppy (Papaver rhoeas), field violet (Viola arvensis), foxtail, green (Setaria viridis), deadnettle (henbit deadnettle, Lamium amplexicaule), ryegrass, Italian (Lolium multiflorum), lambsquarters (Chenopodium album), pigweed (Amaranthus retroflexus), chamomile (scentless chamomile, Matricaria inodora), Russian thistle (Salsola kali), speedwell (bird's-eye speedwell, Veronica persica), buckwheat, wild (Polygonum convolvulus), mustard, wild (Sinapis arvensis), radish, wild (Raphanus raphanistrum), windgrass (Apera spica-venti), geranium, cutleaf (Geranium dissectum) and Canada thistle (Cirsium arvense) were planted in pots containing Redi-Earth® planting medium (Scotts Company, 14111 Scottslawn Road, Marysville, Ohio 43041) comprising spaghnum peat moss, vermiculite, wetting agent and starter nutrients and treated with postemergence applications of the test chemicals formulated in the same manner. Plants ranged in height from 2 to 18 cm (1- to 4-leaf stage). Treated plants and controls were maintained in a controlled growth environment for 14 to 21 d after which time all species were compared to controls and visually evaluated. Plant response ratings, summarized in Table D, are based on a scale of 0 to 100 where 0 is no effect and 100 is complete control. A dash (-) response means no test result.

[10] = test system: windgrass (Apera spica-venti); assay: as above
Text: as §3, §4

[11] = Cpd. No. 20 alone 125 g a.i./ha
[12] = Cpd. No. 20 alone 250 g a.i./ha
[13] = Cpd. No. 20 alone 375 g a.i./ha

For `Cc1ccc2ccc(C)c(-c3c(O)c(Cl)nn(C)c3=O)c2c1` [Cpd. No. 20, 6-chloro-4-(2,7-dimethyl-1-naphthalenyl)-5-hydroxy-2-methyl-3(2H)-pyridazinone], the “Observed result (plant response rating), ECHCG” value (shortened to “Observed result … ECHCG”) ([1]; applied alone at 31 g a.i./ha) was 100, the “Observed result … ECHCG” value ([1]; applied alone at 62 g a.i./ha) was 100 and the “Observed result … ECHCG” value ([1]; applied alone at 125 g a.i./ha) was 100. The “Observed result (plant response rating), ABUTH” value (shortened to “Observed result … ABUTH”) ([2]; applied alone at 31 g a.i./ha) was 76, the “Observed result … ABUTH” value ([2]; applied alone at 62 g a.i./ha) was 89 and the “Observed result … ABUTH” value ([2]; applied alone at 125 g a.i./ha) was 94. The “Plant response rating (0 to 100 scale) GLXMA” value ([3]; Cpd. No. 20 alone 62 g a.i./ha) was 15, the “Plant response rating (0 to 100 scale) GLXMA” value [3, 11] was 22 and the “Plant response rating (0 to 100 scale) GLXMA” value [3, 12] was 30. The “Plant response rating (0 to 100 scale) GLXMA” value [3, 13] was 35, the “Plant response rating (0 to 100 scale) HORVW” value ([4]; Cpd. No. 20 alone 62 g a.i./ha) was 0 and the “Plant response rating (0 to 100 scale) HORVW” value [4, 11] was 10. The “Plant response rating (0 to 100 scale) HORVW” value [4, 12] was 15, the “Plant response rating (0 to 100 scale) HORVW” value [4, 13] was 20 and the “Plant response rating (0 to 100 scale) SETFA” value ([5]; Cpd. No. 20 alone 62 g a.i./ha) was 96. The “Plant response rating (0 to 100 scale) SETFA” value [5, 11] was 99, the “Plant response rating (0 to 100 scale) SETFA” value [5, 12] was 100 and the “Plant response rating (0 to 100 scale) SETFA” value [5, 13] was 100. For the same compound, the “Plant response rating (0 to 100 scale) ZEAMD” value ([6]; Cpd. No. 20 alone 62 g a.i./ha) was 0, the “Plant response rating (0 to 100 scale) ZEAMD” value [6, 11] was 17 and the “Plant response rating (0 to 100 scale) ZEAMD” value [6, 12] was 28. The “Plant response rating (0 to 100 scale) ZEAMD” value [6, 13] was 33, the “Plant response rating (0 to 100 scale) TRZAW” value ([7]; Cpd. No. 20 alone 62 g a.i./ha) was 0 and the “Plant response rating (0 to 100 scale) TRZAW” value [7, 11] was 8. For the same compound, the “Plant response rating (0 to 100 scale) TRZAW” value [7, 12] was 22, the “Plant response rating (0 to 100 scale) TRZAW” value [7, 13] was 35 and the “Plant response rating (0 to 100 scale) ORYSS” value ([8]; Cpd. No. 20 alone 62 g a.i./ha) was 20. The “Plant response rating (0 to 100 scale) ORYSS” value [8, 11] was 35, the “Plant response rating (0 to 100 scale) ORYSS” value [8, 12] was 40 and the “Plant response rating (0 to 100 scale) ORYSS” value [8, 13] was 40. The “Plant response rating, Field Violet” value ([9]; 16 g ai/ha) was 80, the “Plant response rating, Field Violet” value ([9]; 31 g ai/ha) was 80 and the “Plant response rating, Field Violet” value ([9]; 62 g ai/ha) was 95. The “Plant response rating, Field Violet” value ([9]; 125 g ai/ha) was 95, the “Plant response rating, Windgrass” value ([10]; 16 g ai/ha) was 15 and the “Plant response rating, Windgrass” value ([10]; 31 g ai/ha) was 25. For the same compound, the “Plant response rating, Windgrass” value ([10]; 62 g ai/ha) was 50 and the “Plant response rating, Windgrass” value ([10]; 125 g ai/ha) was 75.
